Columns and labels:
M-NFS-60 cells = experiment: M-NFS-60 cell proliferation assay; format: cell-based, mouse; parameters: CSF1R Cell Proliferation (M-NFS-60) IC50 (nM): scale not given here; conditions: 72 hours incubation, Alamar Blue, M-CSF-dependent cells; for IC50: Mus musculus, read-out: CSF1R Cell Proliferation (M-NFS-60) IC50
Description: In certain embodiments, the compounds disclosed herein are tested in an M-NFS-60 cell proliferation assay to determine their cellular potency against CSF-1R. M-NFS-60s are mouse monocytic cells that depend on the binding of the ligand M-CSF to its receptor, CSF-1R, to proliferate Inhibition of CSF-1R kinase activity will cause reduced growth and/or cell death. This assay assesses the potency of compounds as CSF-1R inhibitors by measuring the reduction of Alamar Blue reagent by viable cells. An exemplary assay is described in the Examples section.
The compounds disclosed herein were tested in an M-NFS-60 cell proliferation assay to determine their cellular potency against CSF1R. M-NFS-60s are mouse monocytic cells that depend on the binding of the ligand M-CSF to its receptor, CSF1R, to proliferate Inhibition of CSF1R kinase activity will cause reduced growth and/or cell death. This assay assesses the potency of compounds as CSF1R inhibitors by measuring the reduction of Alamar Blue reagent by viable cells.
On day one of the experiment, M-NFS-60 cells were maintained in RPMI complete medium (Omega Scientific) plus 10% FBS supplemented with 20 ng/mL of M-CSF (R&D Systems). 96-well TC-treated, flat bottom plates were seeded at 10,000 cell/well at a volume of 100 μL per well. The cells were cultured overnight at 37° C. under 5% CO2.
On day two, compounds were added to the cells at 9 different concentrations, with half-log intervals alongside a control reference compound serving as a positive control. Final DMSO concentration was kept at 0.5% for a final volume of 200 μL. The compounds were allowed to incubate with the cells for 72 hours at 37° C. under 5% CO2.
On day five of the experiment, 40 μl of Alamar Blue reagent was added to each well and allowed to incubate for 3 hours. Alamar Blue fluorescence was read using SoftMax Pro software at 560 nm (excitation) and 590 nm (emission). IC50s were generated as an average of duplicates and represents the concentration of test compound that achieves 50% inhibition of cellular proliferation compared to control.

CSF1R (human) = target: T1, CSF1R (human) (Homo sapiens, UniProt P07333); experiment: Competition binding assay, CSF1R (human) Kd
T1 construct: made in house; host or cells: T7 phage display or HEK-293 cells (alternatives, not resolved per kinase)
T1 sequence (P07333 20-972): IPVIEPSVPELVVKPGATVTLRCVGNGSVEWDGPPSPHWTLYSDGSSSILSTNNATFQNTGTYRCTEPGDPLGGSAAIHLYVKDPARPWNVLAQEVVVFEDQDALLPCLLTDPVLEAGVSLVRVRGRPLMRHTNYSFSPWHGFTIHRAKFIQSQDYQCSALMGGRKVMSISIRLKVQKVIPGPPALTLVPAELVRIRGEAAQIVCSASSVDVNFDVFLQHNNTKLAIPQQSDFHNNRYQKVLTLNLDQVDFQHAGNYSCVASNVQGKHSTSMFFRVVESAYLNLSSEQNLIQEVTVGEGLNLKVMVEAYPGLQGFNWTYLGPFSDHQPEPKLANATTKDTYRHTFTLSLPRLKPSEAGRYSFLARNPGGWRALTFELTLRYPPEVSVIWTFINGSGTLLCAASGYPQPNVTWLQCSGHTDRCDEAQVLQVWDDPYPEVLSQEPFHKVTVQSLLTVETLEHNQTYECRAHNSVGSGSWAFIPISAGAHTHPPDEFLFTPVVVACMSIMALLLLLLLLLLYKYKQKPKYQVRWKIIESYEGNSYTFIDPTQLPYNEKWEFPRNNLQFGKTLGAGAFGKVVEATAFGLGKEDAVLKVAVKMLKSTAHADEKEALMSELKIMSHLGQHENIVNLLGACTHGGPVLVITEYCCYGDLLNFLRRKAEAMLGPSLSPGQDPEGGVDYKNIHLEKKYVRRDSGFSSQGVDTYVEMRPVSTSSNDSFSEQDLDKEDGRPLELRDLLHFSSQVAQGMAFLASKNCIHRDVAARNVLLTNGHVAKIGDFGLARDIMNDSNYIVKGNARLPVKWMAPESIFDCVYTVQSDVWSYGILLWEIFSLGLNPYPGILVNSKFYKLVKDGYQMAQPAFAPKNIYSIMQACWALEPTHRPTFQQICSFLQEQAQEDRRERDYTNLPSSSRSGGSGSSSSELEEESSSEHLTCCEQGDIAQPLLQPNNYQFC
Description: (§1) The liganded beads were blocked with excess biotin and washed with blocking buffer (SeaBlock (Pierce), 1% BSA, 0.05% Tween 20, 1 mM DTT) to remove unbound ligand and to reduce non-specific binding. […] Test compounds were prepared as 100× stocks in DMSO and diluted into the aqueous environment. Kds were determined using an eleven point threefold serial dilutions. DMSO or control compounds were was added to control assays lacking a test compound. […] The kinase concentration in the eluates was measured by quantitative PCR.

CSF1R (mouse) = target: T2, CSF1R (mouse) (Mus musculus, UniProt P09581); experiment: Competition binding assay, CSF1R (mouse) Kd
T2 construct: made in house; host or cells: T7 phage display or HEK-293 cells (alternatives, not resolved per kinase)
T2 sequence (P09581 20-977): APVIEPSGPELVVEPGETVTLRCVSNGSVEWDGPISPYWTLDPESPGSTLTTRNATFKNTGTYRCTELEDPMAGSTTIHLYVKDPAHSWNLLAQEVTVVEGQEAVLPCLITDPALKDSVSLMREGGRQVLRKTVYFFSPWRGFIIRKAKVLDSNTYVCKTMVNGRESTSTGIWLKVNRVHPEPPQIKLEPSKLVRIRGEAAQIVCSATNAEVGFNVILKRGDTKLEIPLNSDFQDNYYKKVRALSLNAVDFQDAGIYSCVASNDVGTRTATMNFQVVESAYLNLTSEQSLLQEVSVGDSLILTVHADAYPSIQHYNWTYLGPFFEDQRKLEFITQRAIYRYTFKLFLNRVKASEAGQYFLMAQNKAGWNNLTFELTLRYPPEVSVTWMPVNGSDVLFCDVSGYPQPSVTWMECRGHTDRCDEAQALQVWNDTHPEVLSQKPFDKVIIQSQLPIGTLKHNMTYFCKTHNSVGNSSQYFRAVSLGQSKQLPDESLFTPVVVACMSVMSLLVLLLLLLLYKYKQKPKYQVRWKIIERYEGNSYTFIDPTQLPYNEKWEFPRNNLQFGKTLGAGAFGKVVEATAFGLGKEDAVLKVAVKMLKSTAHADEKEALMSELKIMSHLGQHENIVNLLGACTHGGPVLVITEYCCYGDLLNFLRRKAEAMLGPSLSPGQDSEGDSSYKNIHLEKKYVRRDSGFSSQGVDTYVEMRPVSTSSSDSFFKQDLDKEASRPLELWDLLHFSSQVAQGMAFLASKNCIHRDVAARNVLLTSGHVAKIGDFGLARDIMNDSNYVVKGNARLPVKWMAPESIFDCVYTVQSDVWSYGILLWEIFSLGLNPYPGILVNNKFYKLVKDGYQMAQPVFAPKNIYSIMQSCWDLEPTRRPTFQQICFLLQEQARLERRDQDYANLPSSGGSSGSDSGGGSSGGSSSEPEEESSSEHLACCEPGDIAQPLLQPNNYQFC
Description: as §1

[1] = target: kinase panel containing either 359 or 386 distinct kinases; experiment: Competition binding assay, selectivity score (S10) against a panel of kinases; conditions: compounds at 10 μM; fraction of kinases with percent of control less than 10
Description: Competition binding assays used herein were developed, validated and performed as described in Fabian et al., Nature Biotechnology 2005, 23, 329-336. Kinases were produced as fusions to T7 phage (See, Fabian et al. or WO04/015142) or alternatively, the kinases were expressed in HEK-293 cells and subsequently tagged with DNA for PCR detection (See, WO08/005,310). […] The liganded beads were blocked with excess biotin and washed with blocking buffer (SeaBlock (Pierce), 1% BSA, 0.05% Tween 20, 1 mM DTT) to remove unbound ligand and to reduce non-specific binding. […] Test compounds were prepared as 100× stocks in DMSO and diluted into the aqueous environment. Kds were determined using an eleven point threefold serial dilutions. DMSO or control compounds were was added to control assays lacking a test compound. Primary screen assays were performed in polypropylene 384-well plates in a final volume of 20-40 μL, while Kd determinations were performed in polystyrene 96-well plates in a final volume of […]. […] The kinase concentration in the eluates was measured by quantitative PCR.
A selectivity score (S10) is a quantitative measure of selectivity of a compound against a panel of kinases. An S10 was calculated for a compound by dividing the number of kinases found to have a percent of control (DMSO) less than 10 by the total number of distinct kinases tested (excluding mutant variants). Percent of control (POC) is calculated by subtracting the signal of the control compound
(POC=0) from the signal of the test compound and dividing the outcome by the signal of DMSO (POC=100) minus the signal of the control compound. For the compounds disclosed herein, S10 scores were obtained by testing the compounds at 10 μM concentration in a kinase panel containing either 359 or 386 distinct kinases.

SMILES	IC50 (M-NFS-60 cells)	Kd (CSF1R (human))	Kd (CSF1R (mouse))	Kinase Specificity (S10) [1]	CSF1R Cell Proliferation (M-NFS-60) IC50 (nM) (M-NFS-60 cells)
CN1CCC(Oc2ccnc(C(=O)Nc3ccc(NC(=O)Nc4cc(C(C)(C)C)on4)cc3)c2)CC1	250 to 1000 nM	3 to 10 nM	3 to 10 nM	B (0.03 < B ≦ 0.05)	
CN1CCN(c2cccc(C(=O)Nc3ccc(NC(=O)Nc4cc(C(C)(C)C)on4)cc3)n2)CC1	> 1000 nM	3 to 10 nM	3 to 10 nM	B (0.03 < B ≦ 0.05)	
CCN(CC)Cc1ccnc(C(=O)Nc2ccc(NC(=O)Nc3cc(C(C)(C)C)on3)cc2)c1	250 to 1000 nM	3 to 10 nM	3 to 10 nM	A (A ≦ 0.03)	
CN1CCN(c2ccc(C(=O)Nc3ccc(NC(=O)Nc4cc(C(C)(C)C)on4)cc3)nc2)CC1	≤ 100 nM	< 3 nM	< 3 nM	C (C > 0.05)	
CC(C)(C)OC(=O)N1CCC(Oc2ccc(C(=O)N[C@H]3CC[C@H](NC(=O)Nc4cc(C(C)(C)C)on4)CC3)nc2)CC1	250 to 1000 nM	> 10 nM	3 to 10 nM	A (A ≦ 0.03)	
CC(C)(C)c1cc(NC(=O)N[C@H]2CC[C@H](NC(=O)c3ccc(OC4CCNCC4)cn3)CC2)no1	> 1000 nM	3 to 10 nM	3 to 10 nM	A (A ≦ 0.03)	
CCN1CCC(Oc2ccc(C(=O)N[C@H]3CC[C@H](NC(=O)Nc4cc(C(C)(C)C)on4)CC3)nc2)CC1	250 to 1000 nM	3 to 10 nM	3 to 10 nM	A (A ≦ 0.03)	
CC(C)(C)c1cc(NC(=O)Nc2ccc(NC(=O)c3ccc(CC4CCNCC4)cn3)cc2)no1	100 to 250 nM	< 3 nM	< 3 nM	A (A ≦ 0.03)	
CN1CCC(c2ccc(C(=O)Nc3ccc(NC(=O)Nc4cc(C(C)(C)C)on4)cc3)nc2)CC1	≤ 100 nM	3 to 10 nM	3 to 10 nM	B (0.03 < B ≦ 0.05)	
CCN1CCC(Oc2ccc(C(=O)Nc3ccc(NC(=O)Nc4cc(C(C)(C)F)no4)cc3)nc2)CC1		< 3 nM		A (A ≦ 0.03)	A/B
CC(C)N1CCC(Oc2ccc(C(=O)Nc3ccc(N(C)C(=O)Nc4cc(C(C)(C)C)on4)cc3)nc2)C1 (stereo not shown)	100 to 250 nM	< 3 nM		C (C > 0.05)	
CC(C)(C)c1cc(NC(=O)Nc2ccc(NC(=O)c3ccc(OC4CCN(CCS(C)(=O)=O)C4)cn3)cc2)no1 (stereo not shown)	≤ 100 nM	< 3 nM		C (C > 0.05)	
CN(C)C(=O)CN1CCC(Oc2ccc(C(=O)Nc3ccc(NC(=O)Nc4cc(C(C)(C)C)on4)cc3)nc2)C1 (stereo not shown)	≤ 100 nM	< 3 nM		B (0.03 < B ≦ 0.05)	
CCN1CCC(Oc2ccc(C(=O)Nc3ccc(NC(=O)Nc4cc(C(C)(C)C(F)(F)F)on4)cc3)nc2)CC1	≤ 100 nM	< 3 nM		C (C > 0.05)	
CC(C)N1CCC(Oc2ccc(C(=O)Nc3ccc(NC(=O)Nc4cc(C(C)(C)C(F)(F)F)on4)cc3)nc2)CC1	≤ 100 nM	< 3 nM		C (C > 0.05)	
CC(C)N1CC[C@@H](Oc2ccc(C(=O)Nc3ccc(NC(=O)Nc4cc(C(C)(C)C)on4)cc3)nc2)C1	≤ 100 nM	< 3 nM		C (C > 0.05)	
Cc1cc(NC(=O)Nc2cc(C(C)(C)C)on2)ccc1NC(=O)c1ccc(OC2CC(C)(C)N(C)C(C)(C)C2)cn1	> 1000 nM	3 to 10 nM		C (C > 0.05)	
Cc1cc(NC(=O)c2ccc(OC3CC(C)(C)N(C)C(C)(C)C3)cn2)ccc1NC(=O)Nc1cc(C(C)(C)C)on1	100 to 250 nM	< 3 nM		B (0.03 < B ≦ 0.05)	
CC(C)N1CC[C@H](Oc2ccc(C(=O)Nc3ccc(NC(=O)Nc4cc(C(C)(C)C)on4)cc3)nc2)C1	≤ 100 nM	< 3 nM		C (C > 0.05)	
CN1C2CCC1CC(Oc1ccc(C(=O)Nc3ccc(NC(=O)Nc4cc(C(C)(C)C)on4)cc3)nc1)C2 (stereo not shown)	≤ 100 nM	< 3 nM		C (C > 0.05)	
COc1cc(NC(=O)c2ccc(OC3CC(C)(C)N(C)C(C)(C)C3)cn2)ccc1NC(=O)Nc1cc(C(C)(C)C)on1	> 1000 nM	3 to 10 nM		A (A ≦ 0.03)	
CN1C(C)(C)CC(Oc2ccc(C(=O)Nc3ccc(NC(=O)Nc4cc(C(C)(C)F)no4)cc3)nc2)CC1(C)C	≤ 100 nM	< 3 nM		A (A ≦ 0.03)	
CC(C)(C)c1cc(NC(=O)Nc2ccc(NC(=O)c3cc(OCCN4CCOCC4)ccn3)cc2)no1		3 to 10 nM	< 3 nM	A (A ≦ 0.03)	B/C
CC(C)(C)c1cc(NC(=O)Nc2ccc(NC(=O)c3ccc(CN4CCOCC4)cn3)cc2)no1	100 to 250 nM	3 to 10 nM	3 to 10 nM	A (A ≦ 0.03)	
CC(C)(C)c1cc(NC(=O)Nc2ccc(NC(=O)c3cccc(OCCN4CCOCC4)n3)cc2)no1	> 1000 nM	> 10 nM	> 10 nM	A (A ≦ 0.03)	
CC(C)(C)c1cc(NC(=O)Nc2ccc(NC(=O)c3cccc(CN4CCOCC4)n3)cc2)no1	> 1000 nM	> 10 nM	> 10 nM	B (0.03 < B ≦ 0.05)	

Reference: patent US9296722B2, “Azolyl urea compounds and methods of use thereof” (Ambit Biosciences Corporation, priority 2010, dated 2016)
